Series [1] has as its target T1, human VPAC2 (Homo sapiens, UniProt P41587).
T1 construct: expressed in transfected cells
T1 sequence (P41587 24-438): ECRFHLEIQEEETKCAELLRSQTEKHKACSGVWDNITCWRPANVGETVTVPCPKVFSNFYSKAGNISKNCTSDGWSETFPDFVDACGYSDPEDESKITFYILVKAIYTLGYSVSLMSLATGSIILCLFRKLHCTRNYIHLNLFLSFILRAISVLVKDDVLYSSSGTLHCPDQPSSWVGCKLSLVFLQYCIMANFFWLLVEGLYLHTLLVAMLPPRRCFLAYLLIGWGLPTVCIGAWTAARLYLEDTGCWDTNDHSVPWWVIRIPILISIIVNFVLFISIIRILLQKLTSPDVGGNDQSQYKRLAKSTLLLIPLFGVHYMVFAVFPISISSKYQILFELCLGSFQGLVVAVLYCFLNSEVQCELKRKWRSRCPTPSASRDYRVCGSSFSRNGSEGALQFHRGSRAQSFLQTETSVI
The series can be described thus: Alpha screen cAMP in vitro potency, human VPAC2 receptor. Format: cell-based. Particulars: cAMP generation; single result from two analyses performed in a single run; read-out: Human VPAC2 Receptor: Alpha Screen EC50. Put shortly: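 Cells were detached with enzyme-free dissociation buffer, washed into stimulation buffer and used at 50,000 cells per data point. Stimuli and AlphaScreen acceptor beads were added for 60 minutes, then lysis buffer with donor beads for 60 to 120 minutes; the AlphaScreen signal reports intracellular cAMP.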

A short description of series [2]: Rat serum stability studies (remaining active peptide by DiscoveRx cAMP on CHO-VPAC2 cells). It counts as in vitro ADME. Put shortly: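 Rat serum, 18 h: +aprotinin aliquot at 4° C, no-aprotinin aliquot at 37° C. Then 30 min RT step, supernatant removed, 1 h shaking at 300 rpm. DiscoveRx cAMP kit on CHO-VPAC2; EC50 from cAMP data vs standards.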
The next series deals with T2, human VPAC1 (Homo sapiens, UniProt P32241).
T2 sequence (P32241 31-457): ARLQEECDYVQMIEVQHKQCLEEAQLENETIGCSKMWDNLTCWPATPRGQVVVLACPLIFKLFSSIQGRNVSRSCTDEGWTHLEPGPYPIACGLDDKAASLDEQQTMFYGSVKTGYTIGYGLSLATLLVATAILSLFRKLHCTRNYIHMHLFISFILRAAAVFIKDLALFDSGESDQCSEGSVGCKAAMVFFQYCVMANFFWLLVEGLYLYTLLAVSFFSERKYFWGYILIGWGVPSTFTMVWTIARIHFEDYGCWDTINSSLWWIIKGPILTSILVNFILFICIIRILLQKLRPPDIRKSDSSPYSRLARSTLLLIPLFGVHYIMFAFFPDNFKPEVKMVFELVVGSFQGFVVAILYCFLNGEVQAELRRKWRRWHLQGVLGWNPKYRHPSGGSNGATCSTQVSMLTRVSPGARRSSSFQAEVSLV
The series can be described thus: Filter binding assay, membranes of cells transiently transfected with human VPAC1, 125I-labeled VIP tracer (Table 2). The following applies: read-out: Human VPAC1 Receptor Binding. Also on record: expressed in transfected cells. An outline of the steps:
(§1)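 Competition binding of agonists against radiotracer on receptor membranes (2.5 μg) in 25 mM HEPES pH 7.4 with 0.5% protease-free BSA, about 40000 cpm tracer, 1 hour with shaking. Bound tracer was separated by filtration on PEI-presoaked, BSA-blocked glass-fibre filters, washed and counted by scintillation.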

For the next series, the target named is T3, human PAC1 (Homo sapiens, UniProt P41586).
T3 sequence (P41586 21-468): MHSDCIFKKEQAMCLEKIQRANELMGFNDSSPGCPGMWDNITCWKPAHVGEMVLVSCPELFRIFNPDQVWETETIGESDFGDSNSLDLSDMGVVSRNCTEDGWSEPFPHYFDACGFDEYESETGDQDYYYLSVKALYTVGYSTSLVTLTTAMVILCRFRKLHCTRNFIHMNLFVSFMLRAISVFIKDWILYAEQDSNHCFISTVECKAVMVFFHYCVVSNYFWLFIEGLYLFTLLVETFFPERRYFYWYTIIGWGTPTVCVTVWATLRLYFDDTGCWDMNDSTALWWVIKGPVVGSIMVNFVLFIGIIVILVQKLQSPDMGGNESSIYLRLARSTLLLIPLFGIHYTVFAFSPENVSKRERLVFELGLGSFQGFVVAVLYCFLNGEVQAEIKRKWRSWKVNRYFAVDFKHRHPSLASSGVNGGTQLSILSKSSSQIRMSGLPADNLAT
As to the kind of experiment: Filter binding assay, membranes of cells transiently transfected with human PAC1, 125I-labeled PACAP-27 tracer (Table 2). More on the design: expressed in transfected cells. Particulars: read-out: Human PAC1 Receptor Binding. An outline of the steps: as §1

The target in series [3] is T1, human VPAC2. As to the kind of experiment: Filter binding assay, membranes of stable VPAC2 cell line, 125I-labeled VIP tracer (Table 2). The following applies: read-out: Human VPAC2 Receptor Binding. An outline of the steps:
as §1

Where a SMILES comes first, the peptide text is derived from it. Where no end group is shown, it is not given here. [ ]: non-standard residue; d: D form. The star is where a group is joined. Hexanoyl = CCCCCC(=O)*; Aib = CC(C)(N)C(=O)O

As usually defined, the EC50 is the concentration needed to bring the measured effect to its halfway point. On to `CCCCCC(=O)N[C@@H](Cc1c[nH]cn1)C(=O)N[C@@H](CO)C(=O)N[C@@H](CC(=O)O)C(=O)N[C@@H](C)C(=O)N[C@H](C(=O)N[C@@H](Cc1ccccc1)C(=O)N[C@H](C(=O)N[C@@H](CC(=O)O)C(=O)N[C@@H](CC(N)=O)C(=O)N[C@@H](Cc1ccc(O)cc1)C(=O)N[C@H](C(=O)N[C@@H](CCCNC(=N)N)C(=O)N[C@@H](CC(C)C)C(=O)N[C@@H](CCCNC(=N)N)C(=O)NC(C)(C)C(=O)N[C@@H](CCC(N)=O)C(=O)N[C@H](C(=O)N[C@@H](C)C(=O)N[C@@H](C)C(=O)NC(C)(C)C(=O)N[C@@H](CCCCN)C(=O)N[C@@H](Cc1ccc(O)cc1)C(=O)N[C@@H](CC(C)C)C(=O)N[C@@H](CCC(N)=O)C(=O)N[C@@H](CO)C(=O)N[C@H](C(=O)N[C@@H](CCCCN)C(=O)N[C@@H](CCC(N)=O)C(=O)N[C@@H](CCCCN)C(=O)NCC(=O)NCC(=O)N1CCC[C@H]1C(=O)N[C@@H](CO)C(=O)N[C@@H](CO)C(=O)NCC(=O)N[C@@H](C)C(=O)N1CCC[C@H]1C(=O)N1CCC[C@H]1C(=O)N1CCC[C@H]1C(=O)N[C@@H](CO)C(=O)O)[C@@H](C)CC)C(C)C)[C@@H](C)O)[C@@H](C)O)C(C)C` [Agonist P294] (Hexanoyl-HSDAVFTDNYTRLR[Aib]QVAA[Aib]KYLQSIKQKGGPSSGAPPPS-OH; C-terminus assumed), for which, on human VPAC2 [1], the concentration for a half-maximal effect (EC50) came out at 0.24 nM. In series [2], the “Rat Serum Stability (estimated purity in % after 18 hours)” value is reported as 24.25%. Also, the IC50 on human VPAC1 was over 3000 nM; on human PAC1, over 25000 nM; on human VPAC2 [3] it was 0.45 nM.
In the case of `CCCCCC(=O)N[C@@H](Cc1c[nH]cn1)C(=O)N[C@@H](CO)C(=O)N[C@@H](CC(=O)O)C(=O)N[C@@H](C)C(=O)N[C@H](C(=O)N[C@@H](Cc1ccccc1)C(=O)N[C@H](C(=O)N[C@@H](CC(=O)O)C(=O)N[C@@H](CC(N)=O)C(=O)N[C@@H](Cc1ccc(O)cc1)C(=O)N[C@H](C(=O)N[C@@H](CCCNC(=N)N)C(=O)N[C@@H](CC(C)C)C(=O)N[C@@H](CCCNC(=N)N)C(=O)NC(C)(C)C(=O)N[C@@H](CCC(N)=O)C(=O)N[C@H](C(=O)N[C@@H](C)C(=O)N[C@@H](C)C(=O)N[C@@H](CCCCN)C(=O)NC(C)(C)C(=O)N[C@@H](Cc1ccc(O)cc1)C(=O)N[C@@H](CC(C)C)C(=O)N[C@@H](CCC(N)=O)C(=O)N[C@@H](CO)C(=O)N[C@H](C(=O)N[C@@H](CCCCN)C(=O)N[C@@H](CCC(N)=O)C(=O)N[C@@H](CCCCN)C(=O)NCC(=O)NCC(=O)N1CCC[C@H]1C(=O)N[C@@H](CO)C(=O)N[C@@H](CO)C(=O)NCC(=O)N[C@@H](C)C(=O)N1CCC[C@H]1C(=O)N1CCC[C@H]1C(=O)N1CCC[C@H]1C(=O)N[C@@H](CO)C(=O)O)[C@@H](C)CC)C(C)C)[C@@H](C)O)[C@@H](C)O)C(C)C` [Agonist P295] (Hexanoyl-HSDAVFTDNYTRLR[Aib]QVAAK[Aib]YLQSIKQKGGPSSGAPPPS-OH; C-terminus assumed), the EC50 on human VPAC2 [1] came out at 0.39 nM. The “Rat Serum Stability (estimated purity in % after 18 hours)” value in series [2] was 22.22%. For the same compound, the IC50 is over 3000 nM at human VPAC1, over 25000 nM at human PAC1 and 0.75 nM at human VPAC2 [3].
As for `CCCCCC(=O)N[C@@H](Cc1c[nH]cn1)C(=O)N[C@@H](CO)C(=O)N[C@@H](CC(=O)O)C(=O)N[C@@H](C)C(=O)N[C@H](C(=O)N[C@@H](Cc1ccccc1)C(=O)N[C@H](C(=O)N[C@@H](CC(=O)O)C(=O)N[C@@H](CC(N)=O)C(=O)N[C@@H](Cc1ccc(O)cc1)C(=O)N[C@H](C(=O)N[C@@H](CCCNC(=N)N)C(=O)N[C@@H](CC(C)C)C(=O)N[C@@H](CCCNC(=N)N)C(=O)NC(C)(C)C(=O)N[C@@H](CCC(N)=O)C(=O)N[C@H](C(=O)N[C@@H](C)C(=O)N[C@@H](C)C(=O)NC(C)(C)C(=O)N[C@@H](CCCCN)C(=O)N[C@@H](Cc1ccc(O)cc1)C(=O)N[C@@H](CC(C)C)C(=O)N[C@@H](CCC(N)=O)C(=O)N[C@@H](CO)C(=O)N[C@H](C(=O)N[C@@H](CCCCN)C(=O)N[C@@H](CCC(N)=O)C(=O)NCC(=O)NCC(=O)N1CCC[C@H]1C(=O)N[C@@H](CO)C(=O)N[C@@H](CO)C(=O)NCC(=O)N[C@@H](C)C(=O)N1CCC[C@H]1C(=O)N1CCC[C@H]1C(=O)N1CCC[C@H]1C(=O)N[C@@H](CO)C(=O)O)[C@@H](C)CC)C(C)C)[C@@H](C)O)[C@@H](C)O)C(C)C` [Agonist P297] (Hexanoyl-HSDAVFTDNYTRLR[Aib]QVAA[Aib]KYLQSIKQGGPSSGAPPPS-OH; C-terminus assumed), at human VPAC2 [1], the EC50 stood at 0.36 nM. In addition, the “Rat Serum Stability (estimated purity in % after 18 hours)” value in series [2] was 21.17%. Further, the IC50 at human VPAC1 was over 3000 nM; at human PAC1, over 25000 nM; on human VPAC2 [3], 1.95 nM.
For the compound `CCCCCC(=O)N[C@@H](Cc1c[nH]cn1)C(=O)N[C@@H](CO)C(=O)N[C@@H](CC(=O)O)C(=O)N[C@@H](C)C(=O)N[C@H](C(=O)N[C@@H](Cc1ccccc1)C(=O)N[C@H](C(=O)N[C@@H](CC(=O)O)C(=O)N[C@@H](CC(N)=O)C(=O)N[C@@H](Cc1ccc(O)cc1)C(=O)N[C@H](C(=O)N[C@@H](CCCNC(=N)N)C(=O)N[C@@H](CC(C)C)C(=O)N[C@@H](CCCNC(=N)N)C(=O)NC(C)(C)C(=O)N[C@@H](CCC(N)=O)C(=O)N[C@H](C(=O)N[C@@H](C)C(=O)N[C@@H](C)C(=O)N[C@@H](CCCCN)C(=O)NC(C)(C)C(=O)N[C@@H](Cc1ccc(O)cc1)C(=O)N[C@@H](CC(C)C)C(=O)N[C@@H](CCC(N)=O)C(=O)N[C@@H](CO)C(=O)N[C@H](C(=O)N[C@@H](CCCCN)C(=O)N[C@@H](CCC(N)=O)C(=O)NCC(=O)NCC(=O)N1CCC[C@H]1C(=O)N[C@@H](CO)C(=O)N[C@@H](CO)C(=O)NCC(=O)N[C@@H](C)C(=O)N1CCC[C@H]1C(=O)N1CCC[C@H]1C(=O)N1CCC[C@H]1C(=O)N[C@@H](CO)C(=O)O)[C@@H](C)CC)C(C)C)[C@@H](C)O)[C@@H](C)O)C(C)C` [Agonist P298] (Hexanoyl-HSDAVFTDNYTRLR[Aib]QVAAK[Aib]YLQSIKQGGPSSGAPPPS-OH; C-terminus assumed), the EC50 at human VPAC2 [1] is 0.5 nM. Also, in series [2], the “Rat Serum Stability (estimated purity in % after 18 hours)” value is 30.97%. Further, the IC50 was over 3000 nM on human VPAC1, over 25000 nM on human PAC1 and 8.2 nM at human VPAC2 [3].
For “Hexanoyl-HGEGTFTDNYTRLRKQVAAKKYLQSIKNKRYGGPSSGAPPPS [Agonist P222]”, in that order: 0.51 nM, 0.23%, 177 nM, 466 nM and 1.05 nM.
On to “Hexanoyl-HSDALFTDNYTRLRKQVAAKKYLQSIKNKRYGGPSSGAPPPS [Agonist P289]”, for which the EC50 on human VPAC2 [1] was 0.16 nM. Moreover, the “Rat Serum Stability (estimated purity in % after 18 hours)” value in series [2] was 0.04%. Besides, the IC50 came out at 260 nM at human VPAC1, 324 nM at human PAC1 and 0.38 nM on human VPAC2 [3].
For “Hexanoyl-HSDAVFTDNYTRLAKQVAAKKYLQSIKNKRYGGPSSGAPPPS [Agonist P173]”, in that order: 0.25 nM, 1.04%, 1790 nM, 756 nM and 0.55 nM.
For “Hexanoyl-HSDAVFTDNYTRLFKQVAAKKYLQSIKNKRYGGPSSGAPPPS [Agonist P175]”, in that order: 0.68 nM, under 0.11%, over 3000 nM, over 25000 nM and 13.3 nM.

Source of the values: patent US20080026996A1, “Selective Vpac2 Receptor Reptide Agonists” (ELI LILLY AND COMPANY, priority 2004, published 2008).
